{
  "source": "ChEMBL document CHEMBL2074135",
  "about": "“Recognition of L-amino acid ester compounds by rat peptide transporters PEPT1 and PEPT2” (J Pharmacol Exp Ther, 1999)",
  "molecules": {"B1": {"name": "Solute carrier family 15 member 2 (Rattus norvegicus), Q63424 (protein)", "chain": "MNPFQKNESKETLFSPVSTEEMLPRPPSPPKKSPPKIFGSSYPVSIAFIVVNEFCERFSYYGMKAVLTLYFLYFLHWNEDTSTSVYHAFSSLCYFTPILGAAIADSWLGKFKTIIYLSLVYVLGHVFKSLGAIPILGGKMLHTILSLVGLSLIALGTGGIKPCVAAFGGDQFEEEHAEARTRYFSVFYLAINAGSLISTFITPMLRGDVKCFGQDCYALAFGVPGLLMVLALVVFAMGSKMYRKPPPEGNIVAQVIKCIWFALCNRFRNRSGDLPKRQHWLDWAAEKYPKHLIADVKALTRVLFLYIPLPMFWALLDQQGSRWTLQANKMNGDLGFFVLQPDQMQVLNPFLVLIFIPLFDLVIYRLISKCRINFSSLRKMAVGMILACLAFAVAALVETKINGMIHPQPASQEIFLQVLNLADGDVKVTVLGSRNNSLLVESVSSFQNTTHYSKLHLEAKSQDLHFHLKYNSLSVHNDHSVEEKNCYQLLIHQDGESISSMLVKDTGIKPANGMAAIRFINTLHKDLNISLDTDAPLSVGKDYGVSAYRTVLRGKYPAVHCETEDKVFSLDLGQLDFGTTYLFVITNITSQGLQAWKAEDIPVNKLSIAWQLPQYVLVTAAEVMFSVTGLEFSYSQAPSSMKSVLQAAWLLTVAVGNIIVLVVAQFSGLAQWAEFVLFSCLLLVVCLIFSVMAYYYVPLKSEDTREATDKQIPAVQGNMINLETKNTRL"}, "B2": {"name": "Solute carrier family 15 member 1 (Rattus norvegicus), P51574 (protein)", "chain": "MGMSKSRGCFGYPLSIFFIVVNEFCERFSYYGMRALLVLYFRNFLGWDDDLSTAIYHTFVALCYLTPILGALIADSWLGKFKTIVSLSIVYTIGQAVISVSSINDLTDHDHDGSPNNLPLHVALSMIGLALIALGTGGIKPCVSAFGGDQFEEGQEKQRNRFFSIFYLAINAGSLLSTIITPILRVQQCGIHSQQACYPLAFGVPAALMAVALIVFVLGSGMYKKFQPQGNIMGKVAKCIRFAIKNRFRHRSKAFPKRNHWLDWAKEKYDERLISQIKIMTKVMFLYIPLPMFWALFDQQGSRWTLQATTMTGKIGTIEIQPDQMQTVNAILIVIMVPIVDAVVYPLIAKCGFNFTSLKKMTVGMFLASMAFVVAAIVQVEIDKTLPVFPSGNQVQIKVLNIGNNDMAVYFPGKNVTVAQMSQTDTFMTFDVDQLTSINVSSPGSPGVTTVAHEFEPGHRHTLLVWGPNLYRVVKDGLNQKPEKGENGIRFVSTLNEMITIKMSGKVYENVTSHSASNYQFFPSGQKDYTINTTEIAPNCSSDFKSSNLDFGSAYTYVIRSRASDGCLEVKEFEDIPPNTVNMALQIPQYFLLTCGEVVFSVTGLEFSYSQAPSNMKSVLQAGWLLTVAIGNIIVLIVAEAGHFDKQWAEYVLFASLLLVVCIIFAIMARFYTYINPAEIEAQFDEDEKKKGVGKENPYSSLEPVSQTNM"}},
  "format_in_all_cases": "functional, cell-based",
  "key": {"[1]": {"molecular_target": "T1, Solute carrier family 15 member 1 (Rattus norvegicus) (UniProt P51574)", "T1 sequence (whole entry)": "B2 chain", "test": "TP_TRANSPORTER: inhibition of Gly-Sar uptake (Gly-Sar: 20 uM, Ser-OMe: 10000 uM) in PEPT1-expressing LLC-PK1 cells"}, "[2]": {"molecular_target": "T1, Solute carrier family 15 member 1 (Rattus norvegicus)", "test": "TP_TRANSPORTER: inhibition of Gly-Sar uptake (Gly-Sar: 20 uM, Val-OBzl: 10000 uM) in PEPT1-expressing LLC-PK1 cells"}, "[3]": {"molecular_target": "T2, Solute carrier family 15 member 2 (Rattus norvegicus) (UniProt Q63424)", "T2 sequence (whole entry)": "B1 chain", "test": "TP_TRANSPORTER: inhibition of Gly-Sar uptake (Gly-Sar: 20 uM, Val-OBzl: 10000 uM) in PEPT2-expressing LLC-PK1 cells"}, "[4]": {"molecular_target": "T1, Solute carrier family 15 member 1 (Rattus norvegicus)", "test": "TP_TRANSPORTER: inhibition of Gly-Sar uptake (Gly-Sar: 20 uM, Ala-OMe: 10000 uM) in PEPT1-expressing LLC-PK1 cells"}, "[5]": {"molecular_target": "T2, Solute carrier family 15 member 2 (Rattus norvegicus)", "test": "TP_TRANSPORTER: inhibition of Gly-Sar uptake (Gly-Sar: 20 uM, Ala-OMe: 10000 uM) in PEPT2-expressing LLC-PK1 cells"}, "[6]": {"molecular_target": "T1, Solute carrier family 15 member 1 (Rattus norvegicus)", "test": "TP_TRANSPORTER: inhibition of Gly-Sar uptake (Gly-Sar: 20 uM, Val-tBu: 10000 uM) in PEPT1-expressing LLC-PK1 cells"}, "[7]": {"molecular_target": "T2, Solute carrier family 15 member 2 (Rattus norvegicus)", "test": "TP_TRANSPORTER: inhibition of Gly-Sar uptake (Gly-Sar: 20 uM, Val-tBu: 10000 uM) in PEPT2-expressing LLC-PK1 cells"}, "[8]": {"molecular_target": "T1, Solute carrier family 15 member 1 (Rattus norvegicus)", "test": "TP_TRANSPORTER: inhibition of Gly-Sar uptake (Gly-Sar: 20 uM, Ile-OMe: 10000 uM) in PEPT1-expressing LLC-PK1 cells"}, "[9]": {"molecular_target": "T2, Solute carrier family 15 member 2 (Rattus norvegicus)", "test": "TP_TRANSPORTER: inhibition of Gly-Sar uptake (Gly-Sar: 20 uM, Ile-OMe: 10000 uM) in PEPT2-expressing LLC-PK1 cells"}, "[10]": {"molecular_target": "T1, Solute carrier family 15 member 1 (Rattus norvegicus)", "test": "TP_TRANSPORTER: inhibition of Gly-Sar uptake (Gly-Sar: 20 uM, Leu-OMe: 10000 uM) in PEPT1-expressing LLC-PK1 cells"}, "[11]": {"molecular_target": "T2, Solute carrier family 15 member 2 (Rattus norvegicus)", "test": "TP_TRANSPORTER: inhibition of Gly-Sar uptake (Gly-Sar: 20 uM, Leu-OMe: 10000 uM) in PEPT2-expressing LLC-PK1 cells"}, "[12]": {"molecular_target": "T1, Solute carrier family 15 member 1 (Rattus norvegicus)", "test": "TP_TRANSPORTER: inhibition of Gly-Sar uptake (Gly-Sar: 20 uM, Val-OEt: 10000 uM) in PEPT1-expressing LLC-PK1 cells"}, "[13]": {"molecular_target": "T2, Solute carrier family 15 member 2 (Rattus norvegicus)", "test": "TP_TRANSPORTER: inhibition of Gly-Sar uptake (Gly-Sar: 20 uM, Val-OEt: 10000 uM) in PEPT2-expressing LLC-PK1 cells"}, "[14]": {"molecular_target": "T1, Solute carrier family 15 member 1 (Rattus norvegicus)", "test": "TP_TRANSPORTER: inhibition of Gly-Sar uptake (Gly-Sar: 20 uM, Gly-OMe: 10000 uM) in PEPT1-expressing LLC-PK1 cells"}, "[15]": {"molecular_target": "T2, Solute carrier family 15 member 2 (Rattus norvegicus)", "test": "TP_TRANSPORTER: inhibition of Gly-Sar uptake (Gly-Sar: 20 uM, Gly-OMe: 10000 uM) in PEPT2-expressing LLC-PK1 cells"}, "[16]": {"molecular_target": "T2, Solute carrier family 15 member 2 (Rattus norvegicus)", "test": "TP_TRANSPORTER: inhibition of Gly-Sar uptake (Gly-Sar: 20 uM, Tyr-OMe: 10000 uM) in PEPT2-expressing LLC-PK1 cells"}, "[17]": {"molecular_target": "T3, Solute carrier family 15 member 2 (Rattus norvegicus, UniProt Q63424)", "T3 sequence (Q63424 whole entry)": "B1 chain", "test": "TP_TRANSPORTER: inhibition of Gly-Sar uptake in PEPT2-expressing LLC-PK1 cells"}, "[18]": {"molecular_target": "T4, Solute carrier family 15 member 1 (Rattus norvegicus, UniProt P51574)", "T4 sequence (P51574 whole entry)": "B2 chain", "test": "TP_TRANSPORTER: inhibition of Gly-Sar uptake in PEPT1-expressing LLC-PK1 cells"}, "[19]": {"substrate": "CN(CC(=O)O)C(=O)CN", "test": "TP_TRANSPORTER: uptake in PEPT2-expressing LLC-PK1 cells"}, "[20]": {"substrate": "CN(CC(=O)O)C(=O)CN", "test": "TP_TRANSPORTER: uptake in PEPT1-expressing LLC-PK1 cells"}},
  "note": "Values joined by “and” are separate entries in the source; they are usually repeats but may differ in a detail not shown here. Equal values may be shown once.",
  "data": [
    {"molecule": "COC(=O)[C@@H](N)CO", "values": [
      {"measurement": "Activity", "setting": "[1]", "value": "inhibitor [+]"}
    ]},
    {"molecule": "CC(C)[C@H](N)C(=O)OCc1ccccc1", "values": [
      {"measurement": "Activity", "setting": "[2]", "value": "inhibitor [+]"},
      {"measurement": "Activity", "setting": "[3]", "value": "inhibitor [+]"}
    ]},
    {"molecule": "COC(=O)[C@H](C)N", "values": [
      {"measurement": "Activity", "setting": "[4]", "value": "inhibitor [+]"},
      {"measurement": "Activity", "setting": "[5]", "value": "inhibitor [+]"}
    ]},
    {"molecule": "CC(C)[C@H](N)C(=O)OC(C)(C)C", "values": [
      {"measurement": "Activity", "setting": "[6]", "value": "inhibitor [+]"},
      {"measurement": "Activity", "setting": "[7]", "value": "inhibitor [+]"}
    ]},
    {"molecule": "CC[C@H](C)[C@H](N)C(=O)OC", "values": [
      {"measurement": "Activity", "setting": "[8]", "value": "inhibitor [+]"},
      {"measurement": "Activity", "setting": "[9]", "value": "inhibitor [+]"}
    ]},
    {"molecule": "COC(=O)[C@@H](N)CC(C)C", "values": [
      {"measurement": "Activity", "setting": "[10]", "value": "inhibitor [+]"},
      {"measurement": "Activity", "setting": "[11]", "value": "inhibitor [+]"}
    ]},
    {"molecule": "CCOC(=O)[C@@H](N)C(C)C", "values": [
      {"measurement": "Activity", "setting": "[12]", "value": "inhibitor [+]"},
      {"measurement": "Activity", "setting": "[13]", "value": "inhibitor [+]"}
    ]},
    {"molecule": "COC(=O)CN", "values": [
      {"measurement": "Activity", "setting": "[14]", "value": "inhibitor [+]"},
      {"measurement": "Activity", "setting": "[15]", "value": "inhibitor [+]"}
    ]},
    {"molecule": "COC(=O)[C@@H](N)Cc1ccc(O)cc1", "values": [
      {"measurement": "Activity", "setting": "[16]", "value": "inhibitor [+]"}
    ]},
    {"molecule": "CC(C)[C@H](N)C(=O)OCCOCn1cnc2c(=O)[nH]c(N)nc21", "note": "[VALACYCLOVIR]", "values": [
      {"measurement": "Ki", "setting": "[17]", "value": 220, "unit": "µM"},
      {"measurement": "Ki", "setting": "[17]; llc-pk1", "value": 220, "unit": "µM"},
      {"measurement": "Ki", "setting": "[18]", "value": "2500 µM and 2700 µM"}
    ]},
    {"molecule": "COC(=O)[C@@H](N)C(C)C", "values": [
      {"measurement": "Ki", "setting": "[17]", "value": 830, "unit": "µM"},
      {"measurement": "Ki", "setting": "[18]", "value": 3600, "unit": "µM"}
    ]},
    {"molecule": "B1", "values": [
      {"measurement": "Km", "setting": "[19]", "value": 90, "unit": "µM"}
    ]},
    {"molecule": "B2", "values": [
      {"measurement": "Km", "setting": "[20]", "value": 1900, "unit": "µM"}
    ]}
  ]
}
